Several values for one entry are separate records, joined by “and”; a condition that tells them apart may be missing. Equal entries are not always repeated.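 The compound was tested at five concentrations on cells cultured in 96-well plates, with a 48-hour exposure period. GI50 is the concentration that inhibits growth by half. TGI is the concentration that stops growth completely.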
Assays:
Assay in all cases: NCI tumour cell line growth inhibition, 48 h
NCI-H23 lung = test system: NCI-H23 lung
NCI-H522 lung = test system: NCI-H522 lung
SF-539 CNS = test system: SF-539 CNS
HOP-62 NSCLC = test system: HOP-62 NSCLC
NCI-H460 lung = test system: NCI-H460 lung
MOLT-4 leukemia = test system: MOLT-4 leukemia
SN12C renal = test system: SN12C renal
SF-295 CNS = test system: SF-295 CNS
SK-MEL-5 melanoma = test system: SK-MEL-5 melanoma
SNB-75 CNS = test system: SNB-75 CNS

| SMILES | TGI (NCI-H23 lung) [µM] | TGI (NCI-H522 lung) [µM] | TGI (SF-539 CNS) | TGI (HOP-62 NSCLC) [µM] | TGI (NCI-H460 lung) | TGI (MOLT-4 leukemia) [µM] | TGI (SN12C renal) [µM] | TGI (SF-295 CNS) [µM] | TGI (SK-MEL-5 melanoma) [µM] | TGI (SNB-75 CNS) | GI50 (SF-539 CNS) | GI50 (NCI-H460 lung) [µM] | GI50 (SNB-75 CNS) [µM] |
| --- | --- | --- | --- | --- | --- | --- | --- | --- | --- | --- | --- | --- | --- |
| O=C1CC2(CCNCC2)C(=O)N1N1CCOCC1 | > 100 | > 100 | > 100 µM | > 100 | > 100 µM | > 100 | > 100 | > 100 | > 100 | > 100 µM |  |  |  |
| CCOc1ccc(-c2oc(/C=N/NS(=O)(=O)c3ccc(C)cc3)c([N+](=O)[O-])c2-c2ccc(OCC)cc2)cc1 | 31.4 | 20.6 | 30.7 µM | > 64.3 | 29.7 µM | > 24.8 | 27.5 | 38.4 | 21.2 | 35.2 µM |  |  |  |
| CCOC(=O)/C(C#N)=C/N(CC)/N=C/c1ccccc1 | > 100 | > 100 | > 100 µM |  | > 100 µM | > 100 | > 100 | > 100 | > 100 | > 100 µM |  |  |  |
| CCOC(=O)c1nc2ccccc2nc1NCc1ccc(Cl)cc1Cl | > 100 | > 100 | > 100 µM | > 100 | > 100 µM | > 100 |  | > 100 | > 100 | > 100 µM |  |  |  |
| Cc1cc(=O)[nH]c(NNC(C#N)c2ccc([N+](=O)[O-])cc2)n1 (stereo not given) | > 100 | > 100 | > 100 µM | > 100 | > 100 µM | > 100 | > 100 | > 100 | > 100 | > 100 µM |  |  |  |
| CCOC1=C2NC(Cc3ccc(F)cc3)=NC2C(=O)c2ccccc21 (stereo not given) | 53.4 | 46.1 | 36 µM | > 100 | 52.4 µM | 46.7 |  |  |  | 55.1 µM |  |  |  |
| NC(=O)C1=CC2C3C=CC2(O)C(=O)OC3O1 (stereo not given) | 9.47 | 4.31 | 15.7 µM | 29.9 | 43.2 µM | 8.78 | 20 | 27.1 | 6.32 | 29.4 µM |  |  |  |
| Nc1c(N=Nc2ccc(-c3ccc(N=Nc4c(O)ccc5cc(S(=O)(=O)O)cc(S(=O)(=O)O)c45)cc3)cc2)c(S(=O)(=O)O)cc2cc(S(=O)(=O)O)c(N=Nc3ccccc3)c(O)c12 | > 100 | > 100 | > 100 µM | > 100 | > 100 µM | > 100 | > 100 | > 100 | > 100 | 90.7 µM |  |  |  |
| [N-]=[N+]=C(C(=O)C(=[N+]=[N-])C(=O)c1ccccc1)C(=O)c1ccccc1 | > 100 | > 100 | > 100 µM | > 100 | > 100 µM |  | > 100 | > 100 | > 100 | > 100 µM |  |  |  |
| COc1ccc(C=Nc2ccc(-c3nc4ccccc4[nH]3)cc2)cc1OC | > 100 | > 100 | > 100 µM | > 100 | > 100 µM | > 100 | > 100 | > 100 | > 100 | 52.3 µM |  |  |  |
| Cc1cc2occ(-c3ccc(Cl)cc3)c2c(=O)o1 | > 100 | > 100 | > 100 µM | > 100 | > 100 µM | > 100 | > 100 | > 100 | > 100 | > 100 µM |  |  |  |
| CC(C)=CCC[C@@H](C)c1c2[nH]c3ccccc3sc-2c(C)c(=O)c1=O | 41.9 | 8.6 | 16.3 µM | 24.9 | > 27 µM | > 75 | 67.2 | 40.6 | 19.7 | > 43.3 µM |  |  |  |
| O=C1CSc2nnc(CCCCCCCCc3nnc4n3NC(=O)CS4)n2N1 | > 100 | 75.2 | > 100 µM | > 100 | > 100 µM | > 100 | > 100 | > 100 |  | > 100 µM |  |  |  |
| Cc1cc(S(=O)(=O)O)c(NC(=O)c2oc3cc(O)ccc3c(=O)c2C)cc1Cl | > 100 | > 100 | > 100 µM | > 100 | > 100 µM | > 100 | > 100 | > 100 | > 100 | > 100 µM |  |  |  |
| CC1(C)CCC2(C(=O)OC3OC(CO)C(O)C(O)C3O)CCC3(CO)C(=CCC4C5(C)CC(O)C(O)C(C)(C(=O)OC6OC(CO)C(O)C(O)C6O)C5CCC43C)C2C1 (stereo not given) | > 100 | > 100 | > 100 µM | > 100 | > 100 µM | > 100 | > 100 | > 100 | > 100 | > 100 µM |  |  |  |
| O=S(=O)(O)C1CCC(O)C2[N-]CCCC21.O=S(=O)(O)C1CCC(O)C2[N-]CCCC21.[Zn+2] (stereo not given) |  | > 100 | > 100 µM | > 100 | > 100 µM | > 100 | > 100 | > 100 | > 100 | > 100 µM |  |  |  |
| C=C1CC(Cn2cc(Br)c(=O)[nH]c2=O)(c2ccc(-c3ccccc3)cc2)OC1=O (stereo not given) | 3.4 | 2.55 | 3.92 µM | 19.3 | 19.7 µM |  | 4.67 | 18.5 | 2.55 | 17.6 µM |  |  |  |
| CC(C)(C)CC(C)(C)c1ccc(OCCOCC[N+](C)(C)Cc2ccccc2)cc1 | 6.01 | 6.42 | 3.41 µM and 9.48 µM | 33.5 | 3.43 µM and 11.7 µM | 6.05 | 12.7 | 28.4 |  | 2.34 µM and 5.55 µM | 1.69 µM and 2.88 µM | 1.58 | 0.962 |
| C/C(=C\Cc1cc(O)ccc1O)CCc1c(C)cc(O)c(C=O)c1C | 70.8 | 23.6 | 38.3 µM |  | 67.2 µM | > 100 | 92.4 | 79 | 31.7 | 77.4 µM |  |  |  |
| CCCCCCOP(=O)(OCCCCCC)OC(C(=O)OC)C(F)(F)F (stereo not given) | > 100 | > 100 | > 100 µM | > 100 |  | > 100 | > 100 | > 100 | > 100 | > 100 µM |  |  |  |
| CO[P@]1(=O)O[C@@H](c2ccccc2)[C@H](O)[C@@]1(O)c1ccccc1 | > 100 | > 100 | > 100 µM |  | > 100 µM | > 100 | > 100 | > 100 | > 100 | > 100 µM |  |  |  |

— PubChem BioAssay (NCI)
